Experimental data published in patent US7943382B2, “Method for inspecting fat-soluble vitamin and/or fat-soluble food factor by saliva analysis” (Mitsubishi Chemical Medience Corporation, priority 2004, dated 2011).

Tests used:
[1] = CoQ10 level in parotid saliva of non-CoQ10 supplement-ingesting volunteers; type: in vivo, human; conditions: 55 non-CoQ10 supplement-ingesting volunteers; 2SD 13.5 ng/ml
Source text: Therefore, a standard that can assess an individually suitable intake is required. It can be easily understood from FIG. 7 that the mean level and SD (standard deviation) of CoQ10 in parotid saliva of non-CoQ10 supplement-ingesting volunteers is useful as an example of the standard. A case that a volunteer, who is taking the CoQ10 supplement at an adequate time after meals, ingests it to increase the blood level up to a limit of the CoQ10 level of a non-ingesting volunteer, will be taken as an example for explanation. If a CoQ10 level in parotid saliva is far over the mean value +2SD, the intake is reduced, and if it is between the mean value −2SD and the mean value +2SD, the intake is increased, and the CoQ10 level is repeated inspected in saliva collected again at later dates, allowing the object to be achieved. In addition, the mean level and 2SD in FIG. 7 are obtained from the CoQ10 levels in parotid saliva of the 55 non-CoQ10 supplement-ingesting volunteers, the mean level is 17.0 ng/ml and the 2SD is 13.5 ng/ml.

[2] = Extraction of CoQ10 from absorbent materials with 75% (V/V) ethanol; type: physicochemical
Protocol: In the method of preparing the specimens in example 2, the absorbent materials for saliva and the collection rate by extraction with 75% (V/V) ethanol were weighed. An absorbent of 50 mg was soaked in 600 μl of saliva, to which […] of ethanol was added, mixed, and centrifuged at 4° C. by 1000 G or 5 minutes to remove proteins, and 20 μl of the supernatant was subjected to HPLC. The results of analysis for CoQ10 are shown in Table 3 as “CoQ10 concentrations in saliva which was obtained by steps that 50 mg of the absorbent was soaked in 600 μl of saliva and the saliva was extracted with 1800 μl of ethanol (final concentration: 75%)”. […] Thus, although the fat-soluble components in saliva are adsorbed to the absorbent, the content in a certain amount of saliva can be determined by analyzing the summation of the fat-soluble food factors and the fat-soluble vitamins contained in saliva preserved in the absorbent and interspace.

[3] = Transition of the CoQ10 level in parotid saliva depending on ingestion states of Supplement N; type: in vivo, human
Protocol: For the ingestion test of CoQ10, commercial supplement S containing CoQ10 of 50 mg per one tablet and commercial supplement N containing 30 mg per one tablet were used. 10 volunteers in the group S and 10 volunteers in the group N were made to ingest orally the supplement s and the supplement N respectively. For ingestion of supplement S, each volunteer was made to ingest orally two tablets at 9:00 every morning continuously for a week, and for the next week, made to ingest orally double amount, four tablets at 9:00 every morning continuously, and then stopped from ingestion for two weeks. For ingestion of supplement N, each volunteer was made to ingest orally three tablets at 9:00 every morning continuously for a week, and for the next week, made to ingest orally double amount, six tablets at 9:00 every morning continuously, and then stopped from ingestion for two weeks. As specimens in both the groups S and N, parotid saliva and heparinized plasma were collected from PM 4:00 to 5:00, total four times, that is, before and one week after ingestion, at double dose ingestion, and two weeks after discontinuation of ingestion. The volunteer had the mouth rinsed with water prior to collection, kept quiet on a chair for 5 minutes, while the volunteer accumulated saliva in the oral cavity and discharged to initialize the oral cavity, followed by collecting parotid saliva. For collection of parotid saliva, the Saliva-sampler is inserted between the teeth and the cheek near the open of the parotid gland, the volunteer sat quiet on a chair, during which saliva was collected, while the volunteer swallowed saliva, which was secreted from the sublingual gland and the submandibular gland and accumulated in the mandible, to prevent contamination with the saliva from the sublingual gland and the submandibular gland. For analysis of CoQ10 in saliva collected from the parotid gland, the Saliva-sampler with absorbed saliva was transferred to the peculiar tube holding 1 ml of 50% ethanol, to which […] of ethanol was added to have a final concentration of […]. […]

[4] = Acetylcellulose + ethanol (final concentration 75%)
[5] = Cotton + ethanol (final concentration 75%)
[6] = Polyester + ethanol (final concentration 75%)
[7] = Polyurethane + ethanol (final concentration 75%)

mean CoQ10 level in parotid saliva [1]: 17.0 ng/mL | CoQ10 concentration in saliva after extraction [2, 4]: 31.8 ng/mL | Collection rate [2, 4]: 94.3% | CoQ10 concentration in saliva after extraction [2, 5]: 32.2 ng/mL | Collection rate [2, 5]: 95.6% | CoQ10 concentration in saliva after extraction [2, 6]: 34.2 ng/mL | Collection rate [2, 6]: 102% | CoQ10 concentration in saliva after extraction [2, 7]: 32.1 ng/mL | Collection rate [2, 7]: 95.2% | CoQ10 concentration in saliva ([2]; Saliva (control)): 33.7 ng/mL | Collection rate ([2]; Saliva (control)): 100% | collection by extraction, independent of the absorbent material ([2]; ethanol 75% (V/V)): approximately 100% | transition of the CoQ10 level in parotid saliva ([3]; volunteer N9, ingestion approximately three hours after breakfast): small increase | transition of the CoQ10 level in parotid saliva ([3]; volunteers N1 and N5 (no or often lacking breakfast), increased amount of the supplement): hardly increased
SMILES: COC1=C(OC)C(=O)C(C/C=C(\C)CC/C=C(\C)CC/C=C(\C)CC/C=C(\C)CC/C=C(\C)CC/C=C(\C)CC/C=C(\C)CC/C=C(\C)CC/C=C(\C)CCC=C(C)C)=C(C)C1=O [CoQ10, Ubidecarenone]
transition of the CoQ10 level in parotid saliva ([3]; 3 tablets/day one week, 6 tablets/day next week, then two weeks discontinuation, other 7 volunteers, FIG. 7): increased by ingestion of the supplement with CoQ10, furthermore increased by more ingestion, and decreased after discontinuation of ingestion
